Each block holds one molecule with its values, some of them ahead of it.
Experiments:
[1] = target: T1, Serine/threonine-protein kinase TBK1 (Homo sapiens) (UniProt Q9UHD2); test: Inhibition of TBK1 (unknown origin) incubated at 1000 nM for 1 hr in presence of ATP by FRET based Z'-Lyte assay relative to control
T1 sequence (whole entry): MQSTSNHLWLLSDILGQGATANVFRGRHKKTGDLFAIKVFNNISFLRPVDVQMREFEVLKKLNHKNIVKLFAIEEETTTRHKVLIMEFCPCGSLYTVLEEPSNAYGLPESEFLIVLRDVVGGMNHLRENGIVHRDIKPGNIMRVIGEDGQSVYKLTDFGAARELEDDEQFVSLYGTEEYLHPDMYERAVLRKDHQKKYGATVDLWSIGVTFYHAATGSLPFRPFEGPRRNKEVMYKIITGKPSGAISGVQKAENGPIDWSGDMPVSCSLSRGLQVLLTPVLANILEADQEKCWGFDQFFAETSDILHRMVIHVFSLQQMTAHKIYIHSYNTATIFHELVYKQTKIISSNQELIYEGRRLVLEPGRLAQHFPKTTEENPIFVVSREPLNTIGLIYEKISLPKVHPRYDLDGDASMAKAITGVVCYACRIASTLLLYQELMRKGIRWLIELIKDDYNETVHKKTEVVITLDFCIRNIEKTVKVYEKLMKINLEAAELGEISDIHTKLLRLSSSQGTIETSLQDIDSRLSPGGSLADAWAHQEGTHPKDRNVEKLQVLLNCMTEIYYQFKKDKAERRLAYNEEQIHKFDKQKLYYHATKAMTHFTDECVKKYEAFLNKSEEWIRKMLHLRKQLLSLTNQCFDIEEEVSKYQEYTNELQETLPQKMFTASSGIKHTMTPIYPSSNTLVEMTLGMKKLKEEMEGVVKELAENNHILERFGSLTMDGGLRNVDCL

[2] = target: T1, Serine/threonine-protein kinase TBK1 (Homo sapiens); test: Inhibition of TBK1 (unknown origin) incubated at 10 nM for 1 hr in presence of ATP by FRET based Z'-Lyte assay relative to control
[3] = target: T1, Serine/threonine-protein kinase TBK1 (Homo sapiens); test: Inhibition of TBK1 (unknown origin) incubated at 100 nM for 1 hr in presence of ATP by FRET based Z'-Lyte assay relative to control
[4] = target: T2, Serine/threonine-protein kinase TBK1 (Homo sapiens, UniProt Q9UHD2); test: Inhibition of TBK1 (unknown origin) incubated for 1 hr in presence of ATP by FRET based Z'-Lyte assay
T2 sequence (Q9UHD2 whole entry): T1 sequence (whole entry)

[5] = target: Platelet-derived growth factor receptor beta (Homo sapiens) (UniProt P09619); test: Inhibition of PDGFR-beta (unknown origin) at 100 to 1000 nM relative to control; details: dose 100-1000 nM
[6] = target: Tyrosine-protein kinase ITK/TSK (Homo sapiens) (UniProt Q08881); test: Inhibition of ITK (unknown origin) at 100 to 1000 nM relative to control; details: dose 100-1000 nM
[7] = target: Proto-oncogene tyrosine-protein kinase receptor Ret (Homo sapiens) (UniProt P07949); test: Inhibition of RET (unknown origin) at 100 to 1000 nM relative to control; details: dose 100-1000 nM
[8] = test system: RAW264.7; test: Inhibition of LPS-induced cxcl10 in mouse RAW264.7 cells treated for 2 hrs RTq-PCR analysis; type: functional, cell-based; details: dose 0.1-1 µM
[9] = test system: THP1-Blue ISG; test: Inhibition of LPS-induced ifn-beta in human THP1-Blue ISG cells treated for 2 hrs RTq-PCR analysis; type: functional, cell-based; details: dose 0.1-1 µM
[10] = test system: A549; test: Antiproliferative activity against human A549 cells measured after 72 hrs by SRB staining method; type: functional, cell-based; details: A549, 72 h
[11] = target: Platelet-derived growth factor receptor alpha (Homo sapiens) (UniProt P16234); test: Inhibition of PDGFR-alpha (unknown origin) at 100 to 1000 nM relative to control; details: dose 100-1000 nM
[12] = target: Receptor tyrosine-protein kinase erbB-2 (Homo sapiens) (UniProt P04626); test: Inhibition of ErbB2 (unknown origin) at 100 to 1000 nM relative to control; details: dose 100-1000 nM
[13] = target: Tyrosine-protein kinase ABL1 (Homo sapiens) (UniProt P00519); test: Inhibition of Abl (unknown origin) at 100 to 1000 nM relative to control; details: dose 100-1000 nM
[14] = target: Activated CDC42 kinase 1 (Homo sapiens) (UniProt Q07912); test: Inhibition of ACK1 (unknown origin) at 100 to 1000 nM relative to control; details: dose 100-1000 nM
[15] = target: Tyrosine-protein kinase BTK (Homo sapiens) (UniProt Q06187); test: Inhibition of BTK (unknown origin) at 100 to 1000 nM relative to control; details: dose 100-1000 nM
[16] = target: T2, Serine/threonine-protein kinase TBK1; test: Inhibition of TBK1 in human THP1-Blue ISG cells by measuring SEAP gene expression incubated for 24 hrs by reporter gene assay; type: cell-based
[17] = target: Focal adhesion kinase 1 (Homo sapiens) (UniProt Q05397); test: Inhibition of FAK (unknown origin) at 100 to 1000 nM relative to control; details: dose 100-1000 nM
[18] = Antiproliferative activity against LLC cells measured after 72 hrs by SRB staining method; type: functional, cell-based; details: Mus musculus, Lewis lung carcinoma
[19] = target: Vascular endothelial growth factor receptor 3 (Homo sapiens) (UniProt P35916); test: Inhibition of VEGFR3 (unknown origin) at 100 to 1000 nM relative to control; details: dose 100-1000 nM
[20] = target: Insulin-like growth factor 1 receptor (Homo sapiens) (UniProt P08069); test: Inhibition of IGF1R (unknown origin) at 100 to 1000 nM relative to control; details: dose 100-1000 nM
[21] = target: Macrophage-stimulating protein receptor (Homo sapiens) (UniProt Q04912); test: Inhibition of RON (unknown origin) at 100 to 1000 nM relative to control; details: dose 100-1000 nM
[22] = target: Receptor tyrosine-protein kinase erbB-4 (Homo sapiens) (UniProt Q15303); test: Inhibition of ErbB4 (unknown origin) at 100 to 1000 nM relative to control; details: dose 100-1000 nM
[23] = target: Epidermal growth factor receptor (Homo sapiens) (UniProt P00533); test: Inhibition of EGFR (unknown origin) at 100 to 1000 nM relative to control; details: dose 100-1000 nM
[24] = target: Insulin receptor (Homo sapiens) (UniProt P06213); test: Inhibition of IR (unknown origin) at 100 to 1000 nM relative to control; details: dose 100-1000 nM
[25] = target: Proto-oncogene tyrosine-protein kinase Src (Homo sapiens) (UniProt P12931); test: Inhibition of Src (unknown origin) at 100 to 1000 nM relative to control; details: dose 100-1000 nM
[26] = target: Fibroblast growth factor receptor 4 (Homo sapiens) (UniProt P22455); test: Inhibition of FGFR4 (unknown origin) at 100 to 1000 nM relative to control; details: dose 100-1000 nM
[27] = target: Macrophage colony-stimulating factor 1 receptor (Homo sapiens) (UniProt P07333); test: Inhibition of CSF1R (unknown origin) at 100 to 1000 nM relative to control; details: dose 100-1000 nM
[28] = target: Fibroblast growth factor receptor 1 (Homo sapiens) (UniProt P11362); test: Inhibition of FGFR1 (unknown origin) at 100 to 1000 nM relative to control; details: dose 100-1000 nM
[29] = test system: THP1-Blue ISG; test: Inhibition of LPS-induced cxcl10 in human THP1-Blue ISG cells treated for 2 hrs RTq-PCR analysis; type: functional, cell-based; details: dose 0.1-1 µM
[30] = target: Mast/stem cell growth factor receptor Kit (Homo sapiens) (UniProt P10721); test: Inhibition of KIT (unknown origin) at 100 to 1000 nM relative to control; details: dose 100-1000 nM
[31] = target: T1, Serine/threonine-protein kinase TBK1 (Homo sapiens); test: Inhibition of TBK1 phosphorylation (unknown origin) of downstream signalling effector protein S6K at 1 to 20 uM after 24 hrs by Western blotting analysis; details: dose 1-20 µM
[32] = target: Ephrin type-A receptor 2 (Homo sapiens) (UniProt P29317); test: Inhibition of EPH-A2 (unknown origin) at 100 to 1000 nM relative to control; details: dose 100-1000 nM
[33] = target: Vascular endothelial growth factor receptor 1 (Homo sapiens) (UniProt P17948); test: Inhibition of VEGFR1 (unknown origin) at 100 to 1000 nM relative to control; details: dose 100-1000 nM
[34] = target: Fibroblast growth factor receptor 3 (Homo sapiens) (UniProt P22607); test: Inhibition of FGFR3 (unknown origin) at 100 to 1000 nM relative to control; details: dose 100-1000 nM
[35] = target: Fibroblast growth factor receptor 2 (Homo sapiens) (UniProt P21802); test: Inhibition of FGFR2 (unknown origin) at 100 to 1000 nM relative to control; details: dose 100-1000 nM
[36] = target: Vascular endothelial growth factor receptor 2 (Homo sapiens) (UniProt P35968); test: Inhibition of VEGFR2 (unknown origin) at 100 to 1000 nM relative to control; details: dose 100-1000 nM
[37] = test system: RAW264.7; test: Inhibition of LPS-induced ifn-beta in mouse RAW264.7 cells treated for 2 hrs RTq-PCR analysis; type: functional, cell-based; details: dose 0.1-1 µM
[38] = target: Receptor-type tyrosine-protein kinase FLT3 (Homo sapiens) (UniProt P36888); test: Inhibition of Flt-3 (unknown origin) at 100 to 1000 nM relative to control; details: dose 100-1000 nM
[39] = target: Ephrin type-B receptor 2 (Homo sapiens) (UniProt P29323); test: Inhibition of EPH-B2 (unknown origin) at 100 to 1000 nM relative to control; details: dose 100-1000 nM

Sequence of Receptor tyrosine-protein kinase erbB-4 (Homo sapiens) (Q15303 whole entry): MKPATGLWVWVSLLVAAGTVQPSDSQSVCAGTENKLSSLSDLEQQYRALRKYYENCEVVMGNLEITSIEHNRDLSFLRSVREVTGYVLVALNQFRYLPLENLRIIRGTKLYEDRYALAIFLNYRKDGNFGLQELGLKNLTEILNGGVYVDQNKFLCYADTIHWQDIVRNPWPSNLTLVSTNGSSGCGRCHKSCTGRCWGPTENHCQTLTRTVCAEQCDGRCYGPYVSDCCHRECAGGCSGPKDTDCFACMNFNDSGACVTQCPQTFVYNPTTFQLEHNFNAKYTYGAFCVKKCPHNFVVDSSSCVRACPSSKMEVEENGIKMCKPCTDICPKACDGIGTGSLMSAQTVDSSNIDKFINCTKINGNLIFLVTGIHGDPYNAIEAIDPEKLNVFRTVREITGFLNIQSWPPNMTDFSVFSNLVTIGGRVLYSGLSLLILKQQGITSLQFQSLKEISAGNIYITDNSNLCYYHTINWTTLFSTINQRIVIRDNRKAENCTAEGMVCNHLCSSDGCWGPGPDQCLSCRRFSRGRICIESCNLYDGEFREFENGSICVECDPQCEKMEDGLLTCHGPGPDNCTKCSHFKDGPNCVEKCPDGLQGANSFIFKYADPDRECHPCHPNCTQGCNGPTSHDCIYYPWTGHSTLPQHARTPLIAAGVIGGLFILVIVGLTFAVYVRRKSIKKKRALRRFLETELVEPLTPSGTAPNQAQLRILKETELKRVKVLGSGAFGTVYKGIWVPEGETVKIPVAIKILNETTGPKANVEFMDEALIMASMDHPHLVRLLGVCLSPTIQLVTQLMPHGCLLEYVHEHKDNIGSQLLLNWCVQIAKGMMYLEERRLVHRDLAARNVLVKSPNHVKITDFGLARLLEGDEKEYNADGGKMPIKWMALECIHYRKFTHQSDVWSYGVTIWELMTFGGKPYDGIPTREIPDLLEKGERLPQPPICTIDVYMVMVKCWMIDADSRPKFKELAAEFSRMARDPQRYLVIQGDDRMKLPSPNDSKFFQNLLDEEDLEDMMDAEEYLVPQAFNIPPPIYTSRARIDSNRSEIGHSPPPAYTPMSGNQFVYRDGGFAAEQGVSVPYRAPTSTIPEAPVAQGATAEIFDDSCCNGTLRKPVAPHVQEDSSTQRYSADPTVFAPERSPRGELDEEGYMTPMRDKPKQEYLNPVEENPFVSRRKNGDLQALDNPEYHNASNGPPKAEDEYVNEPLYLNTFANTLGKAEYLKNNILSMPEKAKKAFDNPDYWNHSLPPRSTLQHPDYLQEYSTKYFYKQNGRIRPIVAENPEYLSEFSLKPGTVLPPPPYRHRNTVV
Sequence of Vascular endothelial growth factor receptor 2 (Homo sapiens) (P35968 whole entry): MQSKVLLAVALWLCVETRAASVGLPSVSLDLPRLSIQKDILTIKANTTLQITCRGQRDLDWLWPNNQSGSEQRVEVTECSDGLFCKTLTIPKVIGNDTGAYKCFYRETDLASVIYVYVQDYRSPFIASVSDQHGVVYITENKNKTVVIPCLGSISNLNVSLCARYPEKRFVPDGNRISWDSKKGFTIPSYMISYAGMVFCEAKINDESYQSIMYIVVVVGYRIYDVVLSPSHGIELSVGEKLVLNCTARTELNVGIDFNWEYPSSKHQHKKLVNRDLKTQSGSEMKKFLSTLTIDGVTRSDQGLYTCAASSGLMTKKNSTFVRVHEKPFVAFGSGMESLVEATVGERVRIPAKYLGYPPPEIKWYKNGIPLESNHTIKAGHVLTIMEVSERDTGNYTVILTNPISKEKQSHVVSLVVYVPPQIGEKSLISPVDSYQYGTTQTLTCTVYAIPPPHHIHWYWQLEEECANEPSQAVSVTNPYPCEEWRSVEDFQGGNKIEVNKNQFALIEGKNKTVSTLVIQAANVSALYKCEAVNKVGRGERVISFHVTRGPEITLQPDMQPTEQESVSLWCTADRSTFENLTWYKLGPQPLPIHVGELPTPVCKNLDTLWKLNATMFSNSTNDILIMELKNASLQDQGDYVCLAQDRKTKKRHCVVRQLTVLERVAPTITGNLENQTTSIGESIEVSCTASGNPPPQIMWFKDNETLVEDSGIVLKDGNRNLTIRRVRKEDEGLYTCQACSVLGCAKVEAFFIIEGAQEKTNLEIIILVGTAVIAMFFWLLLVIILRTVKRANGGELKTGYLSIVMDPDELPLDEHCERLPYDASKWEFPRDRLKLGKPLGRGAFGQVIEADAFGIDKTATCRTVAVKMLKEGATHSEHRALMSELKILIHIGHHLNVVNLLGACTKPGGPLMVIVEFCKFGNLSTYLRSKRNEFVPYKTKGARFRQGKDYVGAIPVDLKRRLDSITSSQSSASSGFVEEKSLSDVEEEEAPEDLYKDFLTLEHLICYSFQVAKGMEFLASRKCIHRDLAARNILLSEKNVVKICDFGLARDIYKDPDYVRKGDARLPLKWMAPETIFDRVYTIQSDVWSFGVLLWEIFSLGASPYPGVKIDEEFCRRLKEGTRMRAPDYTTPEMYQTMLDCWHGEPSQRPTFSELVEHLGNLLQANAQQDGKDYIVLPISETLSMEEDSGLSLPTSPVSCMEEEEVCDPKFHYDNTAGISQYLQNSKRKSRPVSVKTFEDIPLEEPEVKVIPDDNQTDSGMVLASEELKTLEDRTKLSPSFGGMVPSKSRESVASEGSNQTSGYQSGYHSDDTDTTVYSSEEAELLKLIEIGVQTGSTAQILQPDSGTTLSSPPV
Sequence of Tyrosine-protein kinase ITK/TSK (Homo sapiens) (Q08881 whole entry): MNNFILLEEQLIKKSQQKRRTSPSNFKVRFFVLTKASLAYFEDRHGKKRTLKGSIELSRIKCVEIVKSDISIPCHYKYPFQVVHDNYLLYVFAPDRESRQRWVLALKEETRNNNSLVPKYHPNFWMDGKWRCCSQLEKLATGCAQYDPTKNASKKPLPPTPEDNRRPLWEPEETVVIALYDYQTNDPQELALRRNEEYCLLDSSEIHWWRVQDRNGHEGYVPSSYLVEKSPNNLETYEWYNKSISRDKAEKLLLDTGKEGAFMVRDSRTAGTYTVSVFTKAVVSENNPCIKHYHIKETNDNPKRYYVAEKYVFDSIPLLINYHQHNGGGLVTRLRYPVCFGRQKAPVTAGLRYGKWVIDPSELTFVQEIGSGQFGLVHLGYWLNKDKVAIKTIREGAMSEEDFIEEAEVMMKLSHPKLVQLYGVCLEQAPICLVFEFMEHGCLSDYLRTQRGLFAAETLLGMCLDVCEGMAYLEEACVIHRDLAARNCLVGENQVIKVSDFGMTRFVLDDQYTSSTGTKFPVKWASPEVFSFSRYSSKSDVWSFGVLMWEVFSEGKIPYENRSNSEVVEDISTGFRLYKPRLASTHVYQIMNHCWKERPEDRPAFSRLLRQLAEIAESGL
Sequence of Receptor tyrosine-protein kinase erbB-2 (Homo sapiens) (P04626 whole entry): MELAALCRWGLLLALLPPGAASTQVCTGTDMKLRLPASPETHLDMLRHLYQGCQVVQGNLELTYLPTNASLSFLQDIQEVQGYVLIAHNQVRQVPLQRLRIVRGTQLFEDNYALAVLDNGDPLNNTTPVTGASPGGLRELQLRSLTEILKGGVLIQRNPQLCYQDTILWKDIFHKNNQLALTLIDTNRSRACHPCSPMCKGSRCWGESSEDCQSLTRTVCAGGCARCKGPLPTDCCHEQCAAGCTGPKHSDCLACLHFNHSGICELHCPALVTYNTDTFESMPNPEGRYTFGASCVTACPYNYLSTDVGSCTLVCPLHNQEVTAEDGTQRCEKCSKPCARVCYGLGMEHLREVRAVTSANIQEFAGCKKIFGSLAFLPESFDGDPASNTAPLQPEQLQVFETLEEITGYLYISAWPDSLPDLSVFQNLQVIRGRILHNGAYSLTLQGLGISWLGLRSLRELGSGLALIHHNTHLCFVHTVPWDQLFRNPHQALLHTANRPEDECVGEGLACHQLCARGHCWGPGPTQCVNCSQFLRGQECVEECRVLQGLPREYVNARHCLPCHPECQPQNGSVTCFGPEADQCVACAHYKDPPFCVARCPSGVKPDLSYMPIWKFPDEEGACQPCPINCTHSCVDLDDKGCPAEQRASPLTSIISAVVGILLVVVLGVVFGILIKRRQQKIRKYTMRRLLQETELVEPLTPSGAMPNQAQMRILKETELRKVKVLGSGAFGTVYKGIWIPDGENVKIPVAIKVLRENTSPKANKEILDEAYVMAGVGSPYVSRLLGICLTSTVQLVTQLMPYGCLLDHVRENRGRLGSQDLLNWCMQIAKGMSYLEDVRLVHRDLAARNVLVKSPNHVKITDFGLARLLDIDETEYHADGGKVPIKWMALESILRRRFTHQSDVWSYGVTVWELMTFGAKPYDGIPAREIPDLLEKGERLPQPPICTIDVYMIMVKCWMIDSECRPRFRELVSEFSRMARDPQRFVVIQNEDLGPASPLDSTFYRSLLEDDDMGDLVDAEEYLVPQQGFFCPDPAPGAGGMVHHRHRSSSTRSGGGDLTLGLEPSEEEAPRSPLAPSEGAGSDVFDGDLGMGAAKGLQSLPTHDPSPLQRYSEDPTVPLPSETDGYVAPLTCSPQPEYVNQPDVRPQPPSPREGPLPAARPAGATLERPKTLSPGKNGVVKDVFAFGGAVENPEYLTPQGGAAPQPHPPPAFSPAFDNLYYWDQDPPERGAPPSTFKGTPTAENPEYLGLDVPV
Sequence of Proto-oncogene tyrosine-protein kinase Src (Homo sapiens) (P12931 2-536 limits assumed): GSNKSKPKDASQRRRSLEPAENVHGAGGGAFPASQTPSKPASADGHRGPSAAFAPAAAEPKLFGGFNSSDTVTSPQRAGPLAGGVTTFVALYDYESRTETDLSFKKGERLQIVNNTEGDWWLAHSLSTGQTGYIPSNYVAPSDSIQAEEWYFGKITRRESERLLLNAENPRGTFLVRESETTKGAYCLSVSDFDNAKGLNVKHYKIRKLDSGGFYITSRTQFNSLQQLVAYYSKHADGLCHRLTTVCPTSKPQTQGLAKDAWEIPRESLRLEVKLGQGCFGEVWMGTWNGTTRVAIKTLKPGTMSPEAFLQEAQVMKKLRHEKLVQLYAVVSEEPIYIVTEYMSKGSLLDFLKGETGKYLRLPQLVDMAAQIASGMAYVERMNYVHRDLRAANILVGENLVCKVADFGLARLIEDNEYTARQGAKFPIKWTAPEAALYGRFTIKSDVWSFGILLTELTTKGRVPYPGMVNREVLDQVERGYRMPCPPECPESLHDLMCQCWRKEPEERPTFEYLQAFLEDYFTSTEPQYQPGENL

inhibition [1]: < 0%
inhibition [2]: < 0%
inhibition [3]: < 0%
SMILES: O=C(Nc1cccc(Cn2ccc3cnc(Nc4cccc(CN5CCOCC5)c4)nc32)c1)C1CCC1

inhibition [1]: 72.6%
IC50 [4]: 53.6 nM
inhibition [2]: -3.2%
inhibition [3]: 44.5%
SMILES: CN1CCN(Cc2cccc(Nc3ncc4ccn(CCCNC(=O)C5CCC5)c4n3)c2)CC1

inhibition [1]: 91.8%
IC50 [4]: 35.7 nM
inhibition [2]: 23%
inhibition [3]: 68.9%
SMILES: COCCN(C)Cc1cccc(Nc2ncc3ccn(CCCNC(=O)C4CCC4)c3n2)c1

inhibition [1]: 92.1%
IC50 [4]: 66.7 nM
inhibition [2]: 23.3%
inhibition [3]: 69.7%
SMILES: O=C(NCCCn1ccc2cnc(Nc3cccc(CN4CCOCC4)c3)nc21)C1CCC1

inhibition [1]: 72.8%
inhibition [2]: < 0%
inhibition [3]: 15.7%
SMILES: O=C(NCc1cccc(-n2ccc3cnc(Nc4cccc(CN5CCOCC5)c4)nc32)c1)C1CCC1

inhibition [5]: < 35%
inhibition [6]: < 35%
inhibition [7]: < 35%
IC50 [10]: 17600 nM
inhibition [11]: < 35%
inhibition [12]: < 35%
inhibition [1]: 89%
inhibition [13]: < 35%
inhibition [14]: < 35%
inhibition [15]: < 35%
IC50 [16]: 566 nM
inhibition [17]: < 35%
inhibition [19]: < 35%
inhibition [20]: < 35%
inhibition [21]: < 35%
inhibition [22]: < 35%
inhibition [23]: < 35%
inhibition [24]: < 35%
inhibition [25]: < 35%
inhibition [26]: < 35%
inhibition [27]: < 35%
inhibition [28]: < 35%
inhibition [30]: < 35%
inhibition [31]: Dose-Dependent Effect
inhibition [32]: < 35%
inhibition [33]: < 35%
IC50 [4]: 22.4 nM
inhibition [34]: < 35%
inhibition [35]: < 35%
inhibition [36]: < 35%
inhibition [38]: < 35%
inhibition [2]: 56.7%
inhibition [39]: < 35%
inhibition [3]: 66.2%
SMILES: CC(=O)N1CCN(Cc2cccc(Nc3ncc4ccn(CCCNC(=O)C5CCC5)c4n3)c2)CC1
inhibition [8]: Dose-Dependent Effect
inhibition [9]: Dose-Dependent Effect
IC50 [18]: 9400 nM
inhibition [29]: Dose-Dependent Effect
inhibition [37]: Dose-Dependent Effect

inhibition [1]: 0.6%
inhibition [2]: < 0%
inhibition [3]: < 0%
SMILES: O=C(NCCCN1C(=O)Cc2cnc(Nc3cccc(CN4CCOCC4)c3)nc21)C1CCC1

inhibition [1]: 92.3%
IC50 [4]: 50 nM
inhibition [2]: 14.7%
inhibition [3]: 64%
SMILES: O=C(NCCCn1ccc2cnc(Nc3cccc(CN4CCN(C5COC5)CC4)c3)nc21)C1CCC1

inhibition [1]: 78.7%
inhibition [2]: < 0%
inhibition [3]: 22.8%
SMILES: Cc1cn(CCCNC(=O)C2CCC2)c2nc(Nc3cccc(CN4CCOCC4)c3)ncc12

inhibition [1]: < 0%
inhibition [2]: < 0%
inhibition [3]: < 0%
SMILES: Cc1cc(=O)n(CCCNC(=O)C2CCC2)c2nc(Nc3cccc(CN4CCOCC4)c3)ncc12

From ChEMBL document CHEMBL5352492, “Application of deep generative model for design of Pyrrolo[2,3-d] pyrimidine derivatives as new selective TANK binding kinase 1 (TBK1) inhibitors” (Eur J Med Chem, 2023)
